{"source": "patent US20220154189A1", "about": "“COMPOSITIONS AND METHODS FOR THE TREATMENT OF KRAS ASSOCIATED DISEASES OR DISORDERS” (Dicerna Pharmaceuticals, Inc., priority 2019, published 2022)", "key": {"[1]": {"tested_on": "Pan02 tumors", "test": "tumor growth inhibition, Pan02 tumors in C57BL/6 mice", "format": "in vivo, mouse", "protocol": "(§1) 6 to 8 week old immunocompetent or immunocompromised mice (C57BL/6/Nude) were injected subcutaneously with 2×10^6 Pan02 (mouse pancreatic cell line) or 5×10^6 Panc1 (human pancreatic cell line) tumor cells under the right shoulder. Tumor volume was measured every 2-3 days a week to monitor tumor growth. Dosing was initiated when the tumors reached about 200 mm^3. For tumor growth inhibition studies, animals were randomized and assigned to different cohorts and subjected to dosing cycles. KRAS1-formulated LNP (“KRAS/LNP”) or Placebo (scrambled KRAS dsRNAi) formulated LNP was given intravenously via lateral tail vein at a total volume of 10 ml/kg. Immuno-modulatory agents (CSF1 antibody, TGF-β inhibitor, or checkpoint inhibitors) were given intraperitoneally or orally at a volume of 10 ml/kg. Trametinib (MEK inhibitor) was given orally at a total volume of 10 ml/kg.\nMouse pancreatic cell line Pan02 was obtained from NCI, and human pancreatic cell line Panc1 cells were obtained from ATCC (Manassas, Va.) and grown in RPMI/DMEM medium supplemented with 10% FBS. Pan02 is a murine PDAC cell line with KRAS G12D mutation. Panc1 is a human PDAC cell line with KRAS […] mutation.\nTo see if the KRAS knockdown observed could be translated into growth inhibition, Pan02 tumors were implanted as described above, and when they reached the right sizes (e.g., about 200 mm^3), they were sorted and treated with KRAS/LNP or Placebo/LNP (cKras) at 10 mpk once a week for 3 weeks, and the tumor growth was monitored."}, "[2]": {"tested_on": "Panc1 tumors", "test": "tumor growth inhibition, human PDAC Panc1 tumors in nude mice", "format": "in vivo", "conditions": "gemcitabine 50 mpk, several rounds", "protocol": "as §1\nMouse pancreatic cell line Pan02 was obtained from NCI, and human pancreatic cell line Panc1 cells were obtained from ATCC (Manassas, Va.) and grown in RPMI/DMEM medium supplemented with 10% FBS. Pan02 is a murine PDAC cell line with KRAS G12D mutation. Panc1 is a human PDAC cell line with KRAS […] mutation. […]"}, "[3]": {"tested_on": "Pan02 tumors", "test": "qPCR of tumor microenvironment and stromal activation marker mRNAs in Pan02 tumors", "format": "in vivo, mouse", "protocol": "To see if a single KRAS/LNP treatment would lead to modulation of the tumor microenvironment, samples from the study described in Example 3 (FIGS. 5A-B) were analyzed for certain T-cell markers (CD8 and FoxP3) and chemokines (CXCL1). FoxP3 is a marker for immunosuppressive T cells (Tregs), which play an important role in regulating or suppressing other cells of the immune system. CXCL1 is a chemokine that actively recruits suppressive molecules such as Tregs and myeloid-derived suppressor cells to the tumor microenvironment.\nTo see if continuous KRAS inhibition would lead to modulation of the tumor microenvironment, Pan02 tumors from the efficacy study described in Example 3 (FIG. 6) were collected 24 hours after the last dose and subjected to qPCR to measure mRNAs of immune cell markers (CD8, FoxP3), immune suppressive cytokines (CXCL1, CXCL5, and IL10), immune checkpoints (PD-L1) or stromal activation markers (TGF-0, Axin2, ROBO1, and CSF3). […] This in turn led to down-regulation of several key suppressive molecules (FoxP3, CXCL1, and CXCL5). […]\nA similar study was repeated in Pan02 tumors as well. […] In this case, tumors were collected and analyzed for the mRNA markers that contribute to modulation of the tumor microenvironment and stromal activation."}, "[4]": {"tested_on": "KRAS mRNA", "test": "in vitro screen of KRAS DsiRNA constructs, KRAS mRNA expression in MIA PaCa2 cells", "format": "cell-based, human", "conditions": "lipofectamine, 1 nM and 0.1 nM, 24 hours", "text": "A nucleic acid inhibitor molecule that targets the KRAS gene (KRAS1) was constructed. First, several 25/27-mer KRAS DsiRNAs (with no modifications except for three methyls on the 3′ end of the guide strand) were selected. These constructs were then converted into a nicked-tetraloop format, using the U/GG convention as 22-mers, such that bases came off the guide strand starting from the 5′ end. These DsiRNAs were screened in human pancreatic carcinoma (MIA PaCa2) cells in vitro using lipofectamine at 1 nM and 0.1 nM concentrations of each construct to determine the potency."}, "[5]": {"tested_on": "KRAS mRNA", "test": "KRAS mRNA expression in mouse tumor models using MIA PaCa2 and LS411N tumor cells", "format": "in vivo, human", "conditions": "MIA PaCa 2 and LS411N tumor models, LNP-formulated tetraloops, 3 mg/kg daily for three days, 24 hours after", "protocol": "FIG. 3B is a column scatter plot showing KRAS mRNA expression levels in a mouse tumor model using MIA PaCa2 tumor cells 24 hours after three-day daily administration of 3 mg/kg of KRAS nucleic acid inhibitor molecules as described in Example 1 and shown in FIG. 3A.\nFIG. 3C is a column scatter plot showing KRAS mRNA expression levels in a mouse tumor model using MIA LS411N tumor cells 24 hours after three-day daily administration of 3 mg/kg of KRAS nucleic acid inhibitor molecules as described in Example 1 and shown in FIG. 3A.\nThe tetraloop sequences were tested in tumor models using MIA PaCa 2 and colon cancer LS411N cell lines. The best two from this screen (KRAS-465T and KRAS-446T) were then further modified to have a 4′-oxymethylphosphonate modification on the nucleotide at the 5′-end of the antisense strand (KRAS-465T/MOP and KRAS-446T/MOP). The sense strand of KRAS-465T/MOP contains SEQ ID NO: 13 (5′-[…]-3′), and the antisense strand of KRAS-465T/MOP contains SEQ ID NO: 14 (3′-[…]-5′, wherein underlining indicates a 4′-oxymethylphosphonate modification). The sense strand of KRAS-446T/MOP contains SEQ ID NO: 15 (5′-[…]-3′), and the antisense strand of KRAS-446T/MOP contains SEQ ID NO: 16 (3′-[…]-5′, wherein underlining indicates a 4′-oxymethylphosphonate modification)."}, "[6]": {"tested_on": "KRAS", "test": "mRNA analysis of KRAS in trametinib-resistant Panc1 tumors", "format": "in vivo, human", "conditions": "trametinib-resistant Panc1 tumors after KRAS/LNP 5 mpk (qdx3), compared to resistant tumors without KRAS/LNP", "protocol": "(§2) To see how trametinib performed in human PDAC, Panc1 tumors were implanted as described above and treated with trametinib (3 mg/kg/dose) as shown in FIG. 12A. Tumor measurements were taken throughout the entire study period to monitor the tumor growth. […] Tumors were collected before and after KRAS/LNP treatments for mRNA analysis."}, "[7]": {"tested_on": "Cd274 (PD-L1) mRNA", "test": "mRNA analysis of Cd274 (PD-L1) in Panc1 tumors", "format": "in vivo, human", "conditions": "MEKi+KRAS DsiRNA treatment", "protocol": "as §2"}, "[8]": {"tested_on": "Pan02 tumors", "test": "FoxP3 and CD8 immunohistochemistry of Pan02 tumors", "format": "in vivo, mouse", "conditions": "KRAS DsiRNA combined with an MEK inhibitor"}, "[9]": {"conditions": "Pan02 tumors, gemcitabine treatment without KRAS/LNP"}, "[10]": {"conditions": "Pan02 tumors, continuous KRAS inhibition (10 mpk weekly x3), 24 hours after last dose"}, "[11]": {"conditions": "Pan02 tumors, single KRAS/LNP treatment 10 mg/kg, 24 hours after last dose"}}}
{"compound": "Cc1cccc(-c2nn3c(c2-c2ccnc4ccc(C(N)=O)cc24)CCC3)n1", "note": "[galunisertib]", "values": [{"measurement": "tumor growth inhibition", "setting": "[1]; orally 75 mpk (BID×2/cycle) for 2 weeks, vs Vehicle", "value": "about 50%"}]}
{"compound": "Nc1ccn([C@@H]2O[C@H](CO)[C@@H](O)C2(F)F)c(=O)n1", "note": "[gemcitabine, reference compound]", "values": [{"measurement": "tumor growth, response to treatment", "setting": "[1]; continuous gemcitabine treatment", "value": "became resistant"}, {"measurement": "tumor growth, response to treatment", "setting": "[2]", "value": "responded nicely at the beginning, they became resistant after several rounds of treatment"}, {"measurement": "CXCL1 mRNA levels", "setting": "[3]; Pan02 tumors treated with gemcitabine until resistant", "value": "increased"}, {"measurement": "Axin2 mRNA (stromal activation marker)", "setting": "[3]; [9]", "value": "lower"}, {"measurement": "ROBO1 mRNA (stromal activation marker)", "setting": "[3]; [9]", "value": "lower"}, {"measurement": "TGF-β mRNA (stromal activation marker)", "setting": "[3]; [9]", "value": "lower"}]}
{"compound": "KRAS-465: 25/27-mer KRAS DsiRNA; sense strand SEQ ID NO: 3, antisense strand SEQ ID NO: 4 (sense CUAAAUCAUUUGAAGAUAUUCACCA; antisense UGGUGAAUAUCUUCAAAUGAUUUAGUA; Dicer-substrate siRNA, chemical modification pattern not given here)", "values": [{"measurement": "KRAS mRNA expression, ranking of potency in the in vitro screen", "setting": "[4]", "value": "best three"}]}
{"compound": "KRAS-465T: KRAS tetraloop construct; sense strand SEQ ID NO: 13, antisense strand SEQ ID NO: 18 (sense CUAAAUCAUUUGAAGAUAUAGCAGCCGAAAGGCUGC; antisense UAUAUCUUCAAAUGAUUUAGGG; sense strand forms tetraloop hairpin, modification pattern not given here)", "values": [{"measurement": "KRAS mRNA expression, ranking in the tumor model screen", "setting": "[5]", "value": "best two"}]}
{"compound": "KRAS-446T: KRAS tetraloop construct; sense strand SEQ ID NO: 15, antisense strand SEQ ID NO: 19 (sense GUAUUUGCCAUAAAUAAUAAGCAGCCGAAAGGCUGC; antisense UUAUUAUUUAUGGCAAAUACGG; sense strand forms tetraloop hairpin, modification pattern not given here)", "values": [{"measurement": "KRAS mRNA expression, ranking in the tumor model screen", "setting": "[5]", "value": "best two"}]}
{"compound": "KRAS-194: 25/27-mer KRAS DsiRNA; sense strand SEQ ID NO: 1, antisense strand SEQ ID NO: 2 (sense GGCCUGCUGAAAAUGACUGAAUATA; antisense UAUAUUCAGUCAUUUUCAGCAGGCCUC; Dicer-substrate siRNA, chemical modification pattern not given here)", "values": [{"measurement": "KRAS mRNA expression, ranking of potency in the in vitro screen", "setting": "[4]", "value": "best three"}]}
{"compound": "KRAS-446: 25/27-mer KRAS DsiRNA; sense strand SEQ ID NO: 5, antisense strand SEQ ID NO: 6 (sense GUAUUUGCCAUAAAUAAUACUAAAT; antisense AUUUAGUAUUAUUUAUGGCAAAUACAC; Dicer-substrate siRNA, chemical modification pattern not given here)", "values": [{"measurement": "KRAS mRNA expression, ranking of potency in the in vitro screen", "setting": "[4]", "value": "best three"}]}
{"compound": "KRAS1: tetraloop construct with 4′-oxymethylphosphonate at nucleotide 1 of the antisense strand; sense SEQ ID NO: 13, antisense SEQ ID NO: 14 (sense CUAAAUCAUUUGAAGAUAUAGCAGCCGAAAGGCUGC; antisense NAUAUCUUCAAAUGAUUUAGGG; tetraloop DsiRNA, 4'-oxymethylphosphonate on antisense 5'-terminal U, other modifications not given here)", "values": [{"measurement": "tumor growth", "setting": "[1]; 10 mpk once a week for 3 weeks, i.v., vs Placebo/LNP", "value": "complete growth inhibition"}, {"measurement": "Axin2 mRNA (stromal activation marker)", "setting": "[3]; [10]", "value": "slightly increased"}, {"measurement": "CSF3 mRNA (stromal activation marker)", "setting": "[3]; [10]", "value": "slightly increased"}, {"measurement": "CXCL1 mRNA", "setting": "[3]; [10]", "value": "down-regulation"}, {"measurement": "CXCL5 mRNA", "setting": "[3]; [10]", "value": "down-regulation"}, {"measurement": "Cd8 mRNA", "setting": "[3]; [10]", "value": "increased"}, {"measurement": "Cd274 (PD-L1) mRNA", "setting": "[3]; [10]", "value": "increased"}, {"measurement": "FoxP3 mRNA", "setting": "[3]; [10]", "value": "down-regulation"}, {"measurement": "ROBO1 mRNA (stromal activation marker)", "setting": "[3]; [10]", "value": "slightly increased"}, {"measurement": "TGF-0 mRNA (stromal activation marker)", "setting": "[3]; [10]", "value": "slightly increased"}, {"measurement": "CD8 mRNA expression level", "setting": "[3]; [11]", "value": "unchanged"}, {"measurement": "CXCL1 mRNA expression level", "setting": "[3]; [11]", "value": "significantly decreased"}, {"measurement": "FoxP3 mRNA expression level", "setting": "[3]; [11]", "value": "significantly decreased"}, {"measurement": "CXCL1 mRNA levels", "setting": "[3]; gemcitabine-resistant Pan02 tumors, single KRAS1 treatment", "value": "not brought down to baseline"}, {"measurement": "KRAS knockdown", "setting": "[6]", "value": "40-50%"}, {"measurement": "Cd274 (PD-L1) mRNA levels", "setting": "[7]", "value": "increased"}, {"measurement": "CD8 expression by immunohistochemistry", "setting": "[8]", "value": "increased"}, {"measurement": "FoxP3 expression by immunohistochemistry", "setting": "[8]", "value": "reduced"}]}
